This assay concerns rats. Nature of the assay: Open field (OF) test in rats, locomotor/exploratory activity. It is filed as in vivo, rat. To be noted: 5-min session, mean ± SEM. As to the method: All drugs were dissolved in distilled water immediately before administration in a volume of 2 mL/kg. All the compounds were administered intraperitoneally (i.p.). […] Control animals received vehicle according to the same schedule.
The experiment was performed using Motor Monitor System (Campden Instruments, Ltd., UK) consisted of two SmartFrame Open Field stations (40 × 40 × 38 cm) with 16 × 16 beams, located in sound attenuating chambers and connected to PC software by control chassis. Individual vehicle- or drug-injected animals were gently placed in the center of the station. An automated motor monitor system recorded ambulation (the number of crossings in X and Y axis), the number of rearing episodes, and total distance covered by a rat for 5 min.
The data of behavioral studies were evaluated using two-way analysis of variance (ANOVA) followed by Bonferroni’s post hoc test, p < 0.05 was considered significant.

Setting [1] is: 10 mg/kg i.p. (s-citalopram 30 min, moclobemide and bupropion 60 min before test).
Setting [2] is: 15 mg/kg i.p. 30 min before test.

As to `O=C(NCCN1CCOCC1)c1ccc(Cl)cc1` [moclobemide], under setting [1], the “Exploratory activity Ambulation X” value is on record as 200 ± 26, the “Exploratory activity Ambulation Y” value is recorded as 192 ± 23, the “Exploratory activity Rearings” value was 62 ± 3 and the “Exploratory activity Total distance (cm)” value was 2160 ± 183 cm.

As for `CN(C)CCC[C@@]1(c2ccc(F)cc2)OCc2cc(C#N)ccc21` [s-citalopram], under setting [1], the “Exploratory activity Ambulation X” value came out at 197 ± 15, the “Exploratory activity Ambulation Y” value is reported as 179 ± 19 and the “Exploratory activity Rearings” value is given as 64 ± 12.

For `CC(NC(C)(C)C)C(=O)c1cccc(Cl)c1` (centres unmarked) [bupropion], under setting [1], the “Exploratory activity Ambulation X” value is 284 ± 31, the “Exploratory activity Ambulation Y” value came out at 301 ± 35, the “Exploratory activity Rearings” value turned out to be 83 ± 9 and the “Exploratory activity Total distance (cm)” value was determined as 3083 ± 229 cm.

Regarding `CN(C)CCCN1c2ccccc2CCc2ccccc21` [imipramine], under setting [2], the “Exploratory activity Ambulation Y” value came out at 203 ± 41, the “Exploratory activity Rearings” value turned out to be 54 ± 3 and the “Exploratory activity Total distance (cm)” value was 2212 ± 332 cm.

The values above are taken from article PMC5748433, “Study on the effect of EMD386088, a 5-HT6 receptor partial agonist, in enhancing the anti-immobility action of some antidepressants in rats” (Naunyn-Schmiedeberg's Archives of Pharmacology, 2017).
